Measured values published in BigSolDB 2.1.

CC(=O)O[C@H]1CC[C@@]2(C)C(=CC[C@@H]3[C@@H]2CC[C@]2(C)C(C(C)=O)=CC[C@@H]32)C1
Settings | solubility (mole fraction)
in acetone, 278.55 K | 0.00427
in acetone, 281.35 K | 0.0048
in acetone, 284.75 K | 0.00538
in acetone, 288.65 K | 0.00622
in acetone, 291.75 K | 0.00678
in acetone, 293.95 K | 0.00731
in acetone, 296.75 K | 0.008
in acetone, 299.05 K | 0.00875
in acetone, 301.55 K | 0.00955
in acetone, 304.25 K | 0.0105
in cyclohexane, 291.95 K | 0.00212
in cyclohexane, 300.25 K | 0.00314
in cyclohexane, 302.75 K | 0.00363
in cyclohexane, 305.75 K | 0.00426
in cyclohexane, 309.25 K | 0.0049
in cyclohexane, 312.95 K | 0.00574
in cyclohexane, 315.9 K | 0.00662
in cyclohexane, 320.15 K | 0.00767
in cyclohexane, 322.95 K | 0.00878
in cyclohexane, 327.85 K | 0.0112
in cyclohexane, 332.25 K | 0.0135
in cyclohexane, 336.45 K | 0.0162
in cyclohexane, 340.35 K | 0.019
in ethanol, 285 K | 0.00103
in ethanol, 289.85 K | 0.00128
in ethanol, 292.6 K | 0.00144
in ethanol, 294.95 K | 0.00162
in ethanol, 297.65 K | 0.00185
in ethanol, 300.95 K | 0.0021
in ethanol, 304.55 K | 0.0024
in ethanol, 307.55 K | 0.00277
in ethanol, 310.55 K | 0.00319
in ethanol, 314.15 K | 0.00371
in ethanol, 317.55 K | 0.00432
in ethanol, 321.35 K | 0.00503
in ethanol, 324.55 K | 0.00583
in ethanol, 327.05 K | 0.0065
in methanol, 282.75 K | 0.000402
in methanol, 286.85 K | 0.000491
in methanol, 291.95 K | 0.000632
in methanol, 295.15 K | 0.000779
in methanol, 299.95 K | 0.000965
in methanol, 303.85 K | 0.00112
in methanol, 309.25 K | 0.00142
in methanol, 312.15 K | 0.0016
in methanol, 315.55 K | 0.00185
in methanol, 318.35 K | 0.00215
in methanol, 320.05 K | 0.00231
